Where “and” joins values, the source holds several entries; their conditions need not be identical. Equal values may be shown once. ± gives the expanded uncertainty stated by the source.
Assays:
[1] = Molar enthalpy of transition or fusion; settings: DSC
[2] = molar enthalpy of vaporization or sublimation; settings: 298.15 K; Crystal 1; DSC
[3] = DTA

## O=C(O)CCCC(=O)O [1,5-pentanedioic acid]
[1]; Crystal 1
  Molar enthalpy of transition or fusion: 18.8 ± 0.6 kJ/mol
[1]; Crystal 2
  Molar enthalpy of transition or fusion: 2.3 ± 0.6 kJ/mol
[2]
  molar enthalpy: 119 ± 6.4 kJ/mol
[3]; Crystal 1
  Triple point temperature: 363.9 ± 13 K
[3]; Crystal 2
  Triple point temperature: 340.5 ± 3.6 K

## O=C(O)CCCCC(=O)O [1,6-hexanedioic acid]
[1]; Crystal 1
  Molar enthalpy of transition or fusion: 33.7 ± 1 kJ/mol
[3]; Crystal 1
  Triple point temperature: 419 ± 2.8 K

## O=C(O)CCCCCC(=O)O [1,7-heptanedioic acid]
[1]; Crystal 1
  Molar enthalpy of transition or fusion: 23.7 ± 2.5 kJ/mol
[1]; Crystal 3
  Molar enthalpy of transition or fusion: 1.5 ± 0.6 kJ/mol
[2]
  molar enthalpy: 133 ± 7.1 kJ/mol
[3]; Crystal 1
  Triple point temperature: 368.2 ± 3.2 K
[3]; Crystal 2
  Triple point temperature: 366.3 ± 2.8 K
[3]; Crystal 3
  Triple point temperature: 337.7 ± 3.2 K

## O=C(O)CCCCCCC(=O)O [1,8-octanedioic acid]
[1]; Crystal 1
  Molar enthalpy of transition or fusion: 30.7 ± 1 kJ/mol
[1]; Crystal 2
  Molar enthalpy of transition or fusion: 9.1 ± 0.3 kJ/mol
[1]; Crystal 3
  Molar enthalpy of transition or fusion: 2 ± 1.6 kJ/mol
[2]
  molar enthalpy: 151 ± 8.1 kJ/mol
[3]; Crystal 1
  Triple point temperature: 413.2 ± 0.5 K
[3]; Crystal 2
  Triple point temperature: 403.6 ± 0.5 K
[3]; Crystal 3
  Triple point temperature: 355.9 ± 1.6 K

## O=C(O)CCCCCCCC(=O)O [1,9-nonanedioic acid]
[1]; Crystal 1
  Molar enthalpy of transition or fusion: 29.7 ± 1.9 kJ/mol
[1]; Crystal 2
  Molar enthalpy of transition or fusion: 0.7 ± 0.6 kJ/mol
[1]; Crystal 3
  Molar enthalpy of transition or fusion: 0.01 kJ/mol
[2]
  molar enthalpy: 144 ± 7.7 kJ/mol
[3]; Crystal 1
  Triple point temperature: 372.4 ± 2.4 K
[3]; Crystal 2
  Triple point temperature: 339.8 ± 8.4 K
[3]; Crystal 3
  Triple point temperature: 330.6 ± 0.5 K

## O=C(O)CCCCCCCCC(=O)O [1,10-decanedioic acid]
[1]; Crystal 1
  Molar enthalpy of transition or fusion: 46.6 ± 10 kJ/mol
[1]; Crystal 2
  Molar enthalpy of transition or fusion: 0.4 ± 0.2 kJ/mol
[3]; Crystal 1
  Triple point temperature: 403.9 ± 0.9 K
[3]; Crystal 2
  Triple point temperature: 370.3 ± 0.5 K

## O=C(O)CCCCCCCCCC(=O)O [1,11-undecanedioic acid]
[1]; Crystal 1
  Molar enthalpy of transition or fusion: 41.2 ± 3.3 kJ/mol
[1]; Crystal 2
  Molar enthalpy of transition or fusion: 1.6 ± 1 kJ/mol
[2]
  molar enthalpy: 164 kJ/mol and 165 kJ/mol
[3]; Crystal 1
  Triple point temperature: 380.1 ± 1.6 K
[3]; Crystal 2
  Triple point temperature: 355.3 ± 0.9 K

## O=C(O)CCCCCCCCCCCCC(=O)O [1,12-dodecanedicarboxylic acid]
[1]; Crystal 1
  Molar enthalpy of transition or fusion: 56.5 ± 3.4 kJ/mol
[2]
  molar enthalpy: 175 ± 9.3 kJ/mol
[3]; Crystal 1
  Triple point temperature: 397.3 ± 0.5 K

## O=C(O)CCCCCCCCCCC(=O)O [1,12-dodecanedioic acid]
[1]; Crystal 1
  Molar enthalpy of transition or fusion: 49.8 ± 2.4 kJ/mol
[1]; Crystal 2
  Molar enthalpy of transition or fusion: -0.1 ± 0.4 kJ/mol
[1]; Crystal 3
  Molar enthalpy of transition or fusion: 0.06 ± 0.15 kJ/mol
[2]
  molar enthalpy: 171 ± 9.1 kJ/mol
[3]; Crystal 1
  Triple point temperature: 400.3 ± 1.3 K
[3]; Crystal 2
  Triple point temperature: 387 ± 1 K
[3]; Crystal 3
  Triple point temperature: 359.5 ± 9.6 K

## O=C(O)CCC(=O)O [butanedioic acid]
[1]; Crystal 1
  Molar enthalpy of transition or fusion: 34 ± 1 kJ/mol
[3]; Crystal 1
  Triple point temperature: 455.2 ± 2.4 K

## O=C(O)CCCCCCCCCCCCCCC(=O)O [hexadecanedioic acid]
[1]; Crystal 1
  Molar enthalpy of transition or fusion: 52.2 ± 1.1 kJ/mol
[3]; Crystal 1
  Triple point temperature: 395.4 ± 1.3 K

## O=C(O)CCCCCCCCCCCC(=O)O [tridecanedioic acid]
[1]; Crystal 1
  Molar enthalpy of transition or fusion: 49.4 ± 1 kJ/mol
[3]; Crystal 1
  Triple point temperature: 386.3 ± 2.8 K

From the NIST ThermoML archive (doi:10.1016/j.jct.2004.12.011)
